Measured values: US20240316084A1, “COMPOSITIONS FOR USE IN PROMOTING ACCELERATED BUTYRATE PRODUCTION IN YOUNG CHILDREN” (SOCIETE DES PRODUITS NESTLE S.A., priority 2020, published 2024)

Assays:
Format in all cases: cell-based, human
gut microbes = assay: gas production: samples from the proximal colon vessel of the SHIME treated with lactose or 2′-FL in a penicillin tube; conditions: for gas production between 6-24 h (rank): 6-24 h timeframe, Lactose versus 2′FL; for gas production at 48 h (gaz pressure): 48 h incubation
Method: Gas production is a measure of fermentative activity by gut microbes. […] Gas production is not monitored in the long-term SHIME® model, given its regular flushing with N2 (to ensure anaerobiosis). Therefore, gas production was evaluated by collecting samples from the proximal colon vessel of the SHIME and treating them with lactose or 2′-FL in a penicillin tube. It was then incubated for 24 h and 48 h. The gas formation was assessed in those tubes.

[1] = system: gut microbiota of a toddler; assay: long term SHIME experiment, comparison of different HMOs blends in toddler (Example 2)
Method: The model of the human gastrointestinal tract used was the SHIM ED. The first two reactors are of the fill-and-draw principle to simulate different steps in food uptake and digestion, with peristaltic pumps adding a defined amount of SHIME feed (140 mL 3×/day) and pancreatic and bile liquid (60 mL 3×/day), respectively to the stomach and small intestine compartment and emptying the respective reactors after specified intervals. The last three compartments simulate the large intestine. The SHIME® experiment for this study consisted of three stages: • Stabilization period: After inoculation of the colon reactors with a fresh faecal sample, a two-week stabilization period allowed the microbial community to differentiate in the different reactors depending on the local environmental conditions. During this period a basic nutritional matrix was provided to the SHIME to support the optimum diversity of the gut microbiota originally present in the faecal inoculum. • Control period: During this two-week reference period, the standard SHIME nutrient matrix was further added to the model for a period of 14 days. Analysis of samples in this period allows to determine the baseline microbial community composition and activity in the different reactors, which will be used as a reference for evaluating the treatment effects. • Treatment period: During this three-week period, the SHIME reactor was operated under nominal conditions, but with a diet supplemented with the 2′FL product on top of the normal composition or with the mixtures HMO-3 or HMO-5. The diet supplemented with HMOs administered 3 times a day at a concentration of 1%. In this experiment, also branched SCFA (b-SCFA=sum of isobutyrate, isovalerate and isocaproate) were measured which result from protein degradation and reflect proteolytic activity of the gut microbiota. A significant alterations in those metabolites was shown in fecal extracts from patients with colon cancer compared to controls Ref: Le Gall 2018 (Oncotarget, 2018, Vol. 9, (No. 70), pp: 33278-33289)

[2] = system: gut microbiota of a toddler; assay: long term SHIME experiment with toddler samples (Example 1); conditions: for Actinobacteria population (Abundance), colon model / butyrate concentration in colon model: Toddler; for increase of butyrate production: young child, three weeks of treatment
Method: (§1) The model of the human gastrointestinal tract used was the SHIME®. The first two reactors are of the fill-and-draw principle to simulate different steps in food uptake and digestion, with peristaltic pumps adding a defined amount of SHIME® feed (140 mL 3×/day) and pancreatic and bile liquid (60 mL 3×/day), respectively to the stomach and small intestine compartment and emptying the respective reactors after specified intervals. The last three compartments simulate the large intestine. The SHIME® experiment for this study consisted of three stages: • Stabilization period: After inoculation of the colon reactors with a fresh faecal sample, a two-week stabilization period allowed the microbial community to differentiate in the different reactors depending on the local environmental conditions. During this period a basic nutritional matrix was provided to the SHIME to support the optimum diversity of the gut microbiota originally present in the faecal inoculum. • Control period: During this two-week reference period, the standard SHIME® nutrient matrix was further added to the model for a period of 14 days. Analysis of samples in this period allows to determine the baseline microbial community composition and activity in the different reactors, which will be used as a reference for evaluating the treatment effects. • Treatment period: During this three-week period, the SHIME® reactor was operated under nominal conditions, but with a diet supplemented with the 2′FL product on top of the normal composition. The diet supplemented with 2′FL was administered 3 times a day at a concentration of 1% SCFA Production were Measured Three Times Per Week Throughout the Experiment

[3] = system: gut microbiota of an infant; assay: long term SHIME experiment with infant fecal samples (Example 1); conditions: for Actinobacteria population (Abundance), colon model / butyrate concentration in colon model: Infant; for increase of butyrate production: infant gut microbiota, three weeks of treatment
Method: as §1

[4] = distal colon, treatment week 3, diet with 1% HMOs 3 times a day
[5] = treatment week 1, diet with 1% 2′FL 3 times a day
[6] = treatment week 2, diet with 1% 2′FL 3 times a day
[7] = treatment week 3, diet with 1% 2′FL 3 times a day

## 2′-fucosyllactose [2′-FL]
Gut microbes
  gas production between 6-24 h (rank): lowest
Gut microbes; Infant
  gas production at 48 h (gaz pressure): 31.8 kPA
Gut microbes; Toddler
  gas production at 48 h (gaz pressure): 49.9 kPA
Gut microbes; both toddler and infant, 48 hours
  gas production over 48 hours as compared to Lactose: less gas production
Gut microbes; toddlers
  increase in gas production corresponding to accelerated butyrate production: no corresponding increase in gas production
[1]
  butyrate production in the colon, onset of effect: immediate increase
[1]; [4]
  BCFA production in toddler: 3.1 mM
  butyrate production in toddler: 29.5 mM
[2]; treatment week 1
  Actinobacteria population (Abundance), colon model: 49.9%
[2]; [5]
  butyrate concentration in colon model: 28.1 mM/m1
[2]; treatment week 2
  Actinobacteria population (Abundance), colon model: 53%
[2]; [6]
  butyrate concentration in colon model: 30.2 mM/m1
[2]; treatment week 3
  Actinobacteria population (Abundance), colon model: 52.2%
[2]; [7]
  butyrate concentration in colon model: 30.3 mM/m1
[2]; toddler samples
  butyrate concentration in the colon, onset of effect: immediate increase
  butyrate concentrations, course through the treatment period: relatively stable
[2]; toddlers
  effect on Actinobacteria phylum mainly composed of Bifidobacteria: immediate effect
[2]; Distal Colon
  increase of butyrate production: 156%
[2]; Proximal Colon
  increase of butyrate production: 192%
[3]; treatment week 1
  Actinobacteria population (Abundance), colon model: 31.8%
[3]; [5]
  butyrate concentration in colon model: 13.75 mM/m1
[3]; treatment week 2
  Actinobacteria population (Abundance), colon model: 46.3%
[3]; [6]
  butyrate concentration in colon model: 15.85 mM/m1
[3]; treatment week 3
  Actinobacteria population (Abundance), colon model: 43.5%
[3]; [7]
  butyrate concentration in colon model: 20.3 mM/m1
[3]; infant fecal samples, over the weeks of treatment
  increase in butyrate, onset of effect: more gradual
[3]; Distal Colon
  increase of butyrate production: 54%
[3]; Proximal Colon
  increase of butyrate production: 81%

## OC[C@H]1O[C@@H](O[C@H]2[C@H](O)[C@@H](O)C(O)O[C@@H]2CO)[C@H](O)[C@@H](O)[C@H]1O (stereo partly shown) [Lactose, reference compound]
Gut microbes
  gas production between 6-24 h (rank): highest
Gut microbes; Infant
  gas production at 48 h (gaz pressure): 4.7 kPA
Gut microbes; Toddler
  gas production at 48 h (gaz pressure): 12.8 kPA
